The text below walks through data of ChEMBL document CHEMBL1177785, “Chemoselective regulation of TREK2 channel: activation by sulfonate chalcones and inhibition by sulfonamide chalcones” (Bioorg Med Chem Lett, 2010).

For test [1], the target named is T1, Potassium channel subfamily K member 10 (Rattus norvegicus, UniProt Q9JIS4).
T1 sequence (Q9JIS4 whole entry): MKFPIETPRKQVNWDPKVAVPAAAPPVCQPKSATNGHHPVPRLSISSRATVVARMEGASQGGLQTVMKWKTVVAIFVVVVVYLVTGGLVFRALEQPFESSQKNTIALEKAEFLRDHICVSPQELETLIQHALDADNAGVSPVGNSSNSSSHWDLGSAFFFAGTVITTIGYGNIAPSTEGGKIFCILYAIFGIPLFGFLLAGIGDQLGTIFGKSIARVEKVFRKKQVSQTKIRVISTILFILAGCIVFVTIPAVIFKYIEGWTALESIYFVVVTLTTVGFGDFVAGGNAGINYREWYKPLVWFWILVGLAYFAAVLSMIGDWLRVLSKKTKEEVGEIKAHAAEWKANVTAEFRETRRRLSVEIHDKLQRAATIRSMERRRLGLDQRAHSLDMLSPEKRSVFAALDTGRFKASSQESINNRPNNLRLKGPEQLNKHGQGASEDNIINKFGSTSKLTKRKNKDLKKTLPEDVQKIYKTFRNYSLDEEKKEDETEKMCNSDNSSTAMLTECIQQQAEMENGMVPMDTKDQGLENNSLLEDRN
Nature of the test: Inhibition of rat TREK2 channel -mediated current expressed in HEK293 at 60 mV holding potential by patch clamp method. The class given is cell-based.

For test [2], the target named is T1, Potassium channel subfamily K member 10. Nature of the test: Activation of rat TREK2 channel -mediated current expressed in HEK293 at 60 mV holding potential by patch clamp method. The class given is cell-based.

The structures appear in SMILES notation.

Take `Cc1ccc(S(=O)(=O)Nc2ccc(C(=O)/C=C/c3ccccc3)cc2)cc1`: in test [1], the 50% inhibitory concentration (IC50) was greater than 100 µM.
Same read-out and setting: as for `COc1ccc(/C=C/C(=O)c2ccc(NS(=O)(=O)c3ccc(C)cc3)cc2)cc1`, the figure is 100 µM; as for `Cc1ccc(S(=O)(=O)Nc2ccc(C(=O)/C=C/c3ccc(O)cc3)cc2)cc1`, 62 µM.
With `Cc1ccc(S(=O)(=O)Oc2ccc(C(=O)/C=C/c3ccc(O)cc3)cc2)cc1`, in test [2], the midpoint of the response, the EC50, lay at 167 µM.

Usually IC50 stands for the concentration that inhibits the measured activity by half. Read a low IC50 as inhibition by little substance. A word on the EC50: it is the concentration that produces a half-maximal response. High values mean lower potency in that assay, low ones higher potency in that assay.
